The values below come from US10066272B2, “Human homeobox gene ventx and macrophage terminal differentiation and activation, compositions and methods thereof” (priority 2011, dated 2018).

Common to all, as to assay type: cell-based, human
The test system of one series is activated macrophages. Nature of the series: Detection of reactive oxygen species (ROS) and nitric oxide (NO) in activated macrophages. The protocol: (§1) Macrophages were generated through incubation of freshly isolated monocytes with 100 ng/mL M-CSF for 4 days. These macrophages were then transfected with siGFP or siVentX, respectively, and further cultured in RPMI 1640 medium for additional 3 days. Thereafter, cells were exposed to 1 μg/mL LPS plus 20 ng/mL γ-IFN for 6 hours. (A) Surface staining of CD40, CD80, CD86 and HLA-DR and intracellular staining of TNF-α and IL1-β were analyzed by flow cytometry. (B) Secreted TNF-α, IL1-β and IL12p70 from culture supernatants were determined with ELISA kits. (C) Reactive oxygen species (ROS) from siGFP or siVentX transfected macrophages were analyzed with fluorescence microscope (left) and flow cytometry (middle). […] (D) Nitrate level from siGFP and siVentX transfected macrophages. Data represent mean+SD of three different experiments. (E) Phagocytosis of siGFP and siVentX transfected macrophage. […]
The ROS level in activated macrophages was detected with Image-iT® LIVE Green Reactive Oxygen Species Detection Kit (Invitrogen) basically following the manufacturer's instructions except that the results were analyzed by both fluorescence microscope and flow cytometry. The NO level was determined by Griess Reagent Kit for Nitrite Determination (Invitrogen) following the protocol provided by the manufacturer.

In a further series the test system is macrophages. Nature of the series: Secreted pro-inflammatory cytokines from macrophage culture supernatants (ELISA). As to conditions: transfected macrophages, TNF-α, IL1-β and IL12p70 by ELISA (FIG. 8B). The protocol: as §1, with “macrophage. Red histogram represents transfection with siGFP; green histogram represents transfection with siVentX. Left panel: cells were incubated on ice; right panel: cells were incubated at 37° C. (F) Effects of VentX knockdown on mixed lymphocyte reaction.” for “macrophage.”
Levels of IL-1β and TNF-α and IL12p70 in the supernatants of E. coli LPS (Sigma) and IFN-γ (PeproTech) treated macrophage or LPS treated U937 cells were quantified using ELISA kits obtained from eBiosciences. […]

For series [1], the system named is cytokine mRNA expression in macrophages. Nature of the series: Effects of VentX knockdown on cytokine mRNA expression in macrophages (real-time PCR). Also on record: unit not given here. The conditions noted are these: macrophages transfected with siRNA; classical activation by LPS plus IFN-γ. How it is done:
Macrophages were generated through incubation of freshly isolated monocytes with 100 ng/mL M-CSF for 4 days. These macrophages were then transfected with siGFP or siVentX, respectively, and further cultured in RPMI 1640 medium for additional 3 days. Thereafter, cells were exposed to 1 μg/mL LPS plus 20 ng/mL γ-IFN for 6 hours. (A) Surface staining of CD40, CD80, CD86 and HLA-DR and intracellular staining of TNF-α and IL1-β were analyzed by flow cytometry. (B) Secreted TNF-α, IL1-β and IL12p70 from culture supernatants were determined with ELISA kits. (C) Reactive oxygen species (ROS) from siGFP or siVentX transfected macrophages were analyzed with fluorescence microscope (left) and flow cytometry (middle). […] (D) Nitrate level from siGFP and siVentX transfected macrophages. Data represent mean+SD of three different experiments. (E) Phagocytosis of siGFP and siVentX transfected macrophage. Red histogram represents transfection with siGFP; green histogram represents transfection with siVentX. Left panel: cells were incubated on ice; right panel: cells were incubated at 37° C. (F) Effects of VentX knockdown on mixed lymphocyte reaction. Irradiated macrophages that had been transfected with siGFP or siVentX were utilized to stimulate allogenic naïve CD4 T cells proliferation. The proliferation rates were represented by counts per minute (CPM). […] Statistically significant difference (p<0.05) was observed when 4×10^2 or 2×10^3 cells were added.
(Martinez, et al. 2008 Front Biosci 13:453-461; Mosser, et al. 2008 Nat Rev Immunol 8:958-969.) To investigate whether VentX is required for classical activation of macrophages, a loss-of-function approach by knockdown of VentX was used.
Human primary monocytes were transfected using the Human Monocyte Nucleofector Kit (Lonza) according to the manufacturer's instructions. Briefly, 5×10^6monocytes were resuspended into 100 μl nucleofector solution with 0.5 nmol of either VentX siRNA (forward: 5′-[…]-3′ (SEQ ID NO:4); reverse: 5′-[…]-3′ (SEQ ID NO:5)) or non-effective GFP siRNA (forward: 5′-[…]-3′ (SEQ ID NO:6); 5′-reverse: […]-3′ (SEQ ID NO:7)) before electroporation with nucleofector II Device (Lonza). Cells were then immediately removed from the device and incubated overnight with 1 ml pre-warmed Human Monocyte Nucleofector Medium containing 2 mM glutamine and 10% FBS. Cells were then resuspended into complete RPMI medium and treated with appropriate cytokines to induce differentiation into macrophages. Similarly, macrophages derived from monocytes were transfected with Human Macrophage Nucleofector Kit (Lonza) following the manufacturer's instructions.
Total RNA was isolated by the TRIzol reagent, and an equal amount of RNA was used for first-strand cDNA synthesis with SuperScript III First-Strand Synthesis System (Invitrogen) according to the manufacturer's protocol. To amplify VentX cDNA with conventional PCR, AccuPrime™ Taq DNA polymerase system (Invitrogen) was used following the manufacturer's instructions. PCR products were separated on 2% agarose gels and stained with ethidium bromide. GAPDH was used as an internal control. Quantitative measurement of VentX and cytokines cDNA were performed with SYBR Green on a LightCycler® (480 Real-Time PCR System; Roche). The primers used are listed in the Sequence Listing (SEQ ID NOs: 24-109).

The subject of series [2] is allogenic naive CD4+ T cells. The series can be described thus: Mixed lymphocyte reaction. The conditions noted are these: irradiated transfected macrophages (FIG. 8F). How it is done: Macrophages were generated through incubation of freshly isolated monocytes with 100 ng/mL M-CSF for 4 days. These macrophages were then transfected with siGFP or siVentX, respectively, and further cultured in RPMI 1640 medium for additional 3 days. Thereafter, cells were exposed to 1 μg/mL LPS plus 20 ng/mL γ-IFN for 6 hours. (A) Surface staining of CD40, CD80, CD86 and HLA-DR and intracellular staining of TNF-α and IL1-β were analyzed by flow cytometry. (B) Secreted TNF-α, IL1-β and IL12p70 from culture supernatants were determined with ELISA kits. (C) Reactive oxygen species (ROS) from siGFP or siVentX transfected macrophages were analyzed with fluorescence microscope (left) and flow cytometry (middle). […] (D) Nitrate level from siGFP and siVentX transfected macrophages. Data represent mean+SD of three different experiments. (E) Phagocytosis of siGFP and siVentX transfected macrophage. Red histogram represents transfection with siGFP; green histogram represents transfection with siVentX. Left panel: cells were incubated on ice; right panel: cells were incubated at 37° C. (F) Effects of VentX knockdown on mixed lymphocyte reaction. Irradiated macrophages that had been transfected with siGFP or siVentX were utilized to stimulate allogenic naïve CD4 T cells proliferation. The proliferation rates were represented by counts per minute (CPM). […]

For “siVentX: VentX siRNA, forward 5′-UUCAGAAUCGCCGCAUGAAACACAAACGG-3′ (SEQ ID NO:4), reverse SEQ ID NO:5 (antisense CCGUUUGUGUUUCAUGCGGCGAUUCUGAA; listed as RNA, chemistry not given here)”, the “reactive oxygen species produced” value in the series with activated macrophages (transfected macrophages (FIG. 8C)) is listed as “significantly less”. Further, the nitric oxide produced result with activated macrophages (transfected macrophages (FIG. 8D)) was “significantly less”. For the same substance, in the series with macrophages, the pro-inflammatory cytokine secretion result is given as “significant reduction”. For the same substance, in series [1], the “IL1-β cytokine mRNA expression” value is on record as 21.93 ± 1.8, the “IL6 cytokine mRNA expression” value is recorded as 1.78 ± 0.14, the “IL8 cytokine mRNA expression” value is recorded as 172 ± 5.8 and the “IL12p35 cytokine mRNA expression” value was found to be 0.37 ± 0.14. Further, in series [1], the “IL12p40 cytokine mRNA expression” value amounted to 0.61 ± 0.05, the “M-SCSF cytokine mRNA expression” value worked out at 0.14 ± 0.01 and the “TNF-α cytokine mRNA expression” value is 0.18 ± 0.01. Moreover, the “stimulation of allogeneic T cells proliferation” value in series [2] was “less potent”.
